Laboratory results from US20170009266A1, “PROCESS FOR THE ATTACHMENT OF A GALNAC MOIETY COMPRISING A (HETERO)ARYL GROUP TO A GLCNAC MOIETY, AND PRODUCT OBTAINED THEREBY” (SYNAFFIX B.V., priority 2014, published 2017).
Numbering of substitutions follows the chain as printed.

How the values were obtained:
Gal-T1(Y289G) = target: T1, Gal-T1(Y289G) (Bos taurus, UniProt P08037, I205M/L206V/P187L/V158I/Y289G); assay: Glycosyltransfer to trimmed trastuzumab with Gal-T1(Y289G) expressed in CHO; type: biochemical, bovine; details: trimmed trastuzumab 10 mg/mL; UDP derivative 5 mM; enzyme 0.5 mg/mL; pH 8.0, 30° C. overnight
T1 construct: host or cells: CHO K1
T1 sequence (P08037 74-402 V158I/P187L/I205M/L206V/Y289G): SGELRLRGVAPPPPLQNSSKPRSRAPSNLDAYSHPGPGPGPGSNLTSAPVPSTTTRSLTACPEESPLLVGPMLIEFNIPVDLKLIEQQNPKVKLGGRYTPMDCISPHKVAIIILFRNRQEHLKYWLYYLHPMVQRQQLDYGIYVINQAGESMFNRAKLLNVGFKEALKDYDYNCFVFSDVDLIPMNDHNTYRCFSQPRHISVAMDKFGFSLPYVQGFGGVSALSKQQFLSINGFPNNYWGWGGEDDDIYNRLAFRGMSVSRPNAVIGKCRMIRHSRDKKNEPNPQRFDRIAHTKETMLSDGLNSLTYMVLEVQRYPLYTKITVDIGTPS
From the text: (§1) A set of Gal-T 1 mutants encoding residues 74-402 of bovine Gal-T 1 were transiently expressed in CHO K1 cells by Evitria (Zurich, Switzerland) which include the Gal-T1 single mutants Y289L (represented by SEQ ID NO: 26), Y289F (represented by SEQ ID NO: 27), Y289M (represented by SEQ ID NO: 28), Y289V (represented by SEQ ID NO: 29), Y289A (represented by SEQ ID NO: 30), and Y289G (represented by SEQ ID NO: 31), and the Gal-T1 double mutants Y289L,C342T (represented by SEQ ID NO: 32), and Y289M,C342T (represented by SEQ ID NO: 33). The mutants were purified using a cation exchange column (Source 15S HR16/10 column, GE Healthcare) as described above. Purified proteins were analyzed by SDS-PAGE.
(§2) Trimmed trastuzumab (10 mg/mL, […] obtained by Endo S treatment of trastuzumab, was incubated with the 4-azido-3,5-difluorobenzoyl derivative of UDP-galactosamine (23, 5 mM) and one of the Gal-T1 single mutants Y289L, Y289M, Y289A or Y289G (expressed in CHO as described above) (0.5 mg/mL) in 10 mM MnCl2 and 25 mM Tris-HCl pH 8.0 at 30° C. overnight. Mass spectral analysis of the reduced sample indicated a partial conversion of the core GlcNac(Fuc)-substituted trastuzumab heavy chain (49504 Da) into product 30 (49818 to 49825 Da, 20 to 50% of total heavy chain depending on the Gal-T1 mutant used), resulting from transfer of 23 to core GlcNAc(Fuc)-substituted trastuzumab heavy chain. […]

Gal-T1(Y289A) = target: T2, Gal-T1(Y289A) (Bos taurus, UniProt P08037, I205M/L206V/P187L/V158I/Y289A); assay: Glycosyltransfer to trimmed trastuzumab with Gal-T1(Y289A) expressed in CHO; type: biochemical, bovine; details: trimmed trastuzumab 10 mg/mL; UDP derivative 5 mM; enzyme 0.5 mg/mL; pH 8.0, 30° C. overnight
T2 construct: host or cells: CHO K1
T2 sequence (P08037 74-402 V158I/P187L/I205M/L206V/Y289A): T1 sequence (P08037 74-402 V158I/P187L/I205M/L206V/Y289G) with G216A
From the text: as §1, §2

Q: For [N-]=[N+]=Nc1c(F)cc(C(=O)N[C@H]2[C@@H](OP(=O)(O)OP(=O)(O)OC[C@H]3O[C@@H](n4ccc(=O)[nH]c4=O)[C@H](O)[C@@H]3O)O[C@H](CO)[C@H](O)[C@@H]2O)cc1F [Compound 23, 4-azido-3,5-difluorobenzoyl Derivative of UDP-GalNH2], which observed conversion (Gal-T1(Y289G)) is on record?
A: Its observed conversion is “approximately 20%”.

Q: And the observed conversion (Gal-T1(Y289A))?
A: The observed conversion was “approximately 20%”.
